Patent US9227971B2, “Pyrazolo[1,5-a]pyrimidine compounds as mTOR inhibitors” (Merck Sharp & Dohme Corp., priority 2010, dated 2016)

What was measured:
[1] = test system: phosphorylated 4E-BP1 Thr37/46 (p4E-BP1 Thr37/46), mTORC1 activity, PC3 cells; assay: mTOR target engagement assay, immunofluorescent cell-based, p4E-BP1 Thr37/46 readout (mTORC1 activity); details: Homo sapiens, PC-3, PC3 cells, compound treatment ninety minutes at 37° C.; read-out: p4E-BP1 Thr37/46 IC50
In short: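 Read-out is fluorescence intensity of immunostained p4E-BP1 Thr37/46 in fixed PC3 cells, fitted to a logistic curve for IC50 with DMSO-only wells as top. Cells had been exposed to serial compound dilutions for ninety minutes at 37° C in 5% FBS medium with 0.25% DMSO.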

[2] = test system: phosphorylated AKT Ser473 (pAKT S473), mTORC2 activity, PC3 cells; assay: mTOR target engagement assay, immunofluorescent cell-based, pAKT S473 readout (mTORC2 activity); details: Homo sapiens, PC-3, PC3 cells, compound treatment ninety minutes at 37° C.
In short: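 After blocking, cells were stained overnight at 4 °C with anti-pAKT S473 antibody, then a fluorescent secondary; inhibition was read as reduced fluorescence intensity.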

Row | SMILES | IC50 [1] [nM] | IC50 [2] [nM]
1 | CC(=O)c1c([C@@H]2C[C@H]3CC[C@@H](C2)N3C(=O)CO)nc2c(-c3ccc(-c4ccc(F)cc4F)nc3)cnn2c1N [Compound 1.1.164, 1-((1R,3s,5S)-3-(6-acetyl-7-amino-3-(6-(2,4-difluorophenyl)pyridin-3-yl)pyrazolo[1,5-a]pyrimidin-5-yl)-8-azabicyclo[3.2.1]octan-8-yl)-2-hydroxyethanone] | 100 to 1000 | 1 to 100
2 | CC(=O)c1c([C@@H]2C[C@H]3CC[C@@H](C2)N3C(=O)c2nnc(C)[nH]2)nc2c(-c3ccc(-c4ccc(F)cc4F)nc3)cnn2c1N [Compound 1.1.165, 1-(7-amino-3-(6-(2,4-difluorophenyl)pyridin-3-yl)-5-((1R,3s,5S)-8-(5-methyl-4H-1,2,4-triazole-3-carbonyl)-8-azabicyclo[3.2.1]octan-3-yl)pyrazolo[1,5-a]pyrimidin-6-yl)ethanone] | 1 to 100 | 1 to 100
3 | CC(=O)c1c([C@@H]2C[C@H]3CC[C@@H](C2)N3C(=O)c2cc(N)n[nH]2)nc2c(-c3ccc(-c4ccc(F)cc4F)nc3)cnn2c1N [Compound 1.1.166, 1-(7-amino-5-((1R,3s,5S)-8-(3-amino-1H-pyrazole-5-carbonyl)-8-azabicyclo[3.2.1]octan-3-yl)-3-(6-(2,4-difluorophenyl)pyridin-3-yl)pyrazolo[1,5-a]pyrimidin-6-yl)ethanone] | 1 to 100 | 1 to 100
4 | CC(=O)c1c([C@@H]2C[C@H]3CC[C@@H](C2)N3C(=O)c2ccn[nH]2)nc2c(-c3ccc(-c4ccc(F)cc4F)nc3)cnn2c1N [Compound 1.1.167, 1-(5-((1R,3s,5S)-8-(1H-pyrazole-5-carbonyl)-8-azabicyclo[3.2.1]octan-3-yl)-7-amino-3-(6-(2,4-difluorophenyl)pyridin-3-yl)pyrazolo[1,5-a]pyrimidin-6-yl)ethanone] | 100 to 1000 | 1 to 100
5 | CC(=O)c1c([C@@H]2C[C@H]3CC[C@@H](C2)N3C(=O)[C@@H](C)O)nc2c(-c3ccc(-c4ccc(F)cc4F)nc3)cnn2c1N [Compound 1.1.168, (R)-1-((1R,3S,5S)-3-(6-acetyl-7-amino-3-(6-(2,4-difluorophenyl)pyridin-3-yl)pyrazolo[1,5-a]pyrimidin-5-yl)-8-azabicyclo[3.2.1]octan-8-yl)-2-hydroxypropan-1-one] | 100 to 1000 | 100 to 1000
6 | CC(=O)c1c([C@@H]2C[C@H]3CC[C@@H](C2)N3C(N)=O)nc2c(-c3ccc(-c4ccc(F)cc4F)nc3)cnn2c1N [Compound 1.1.169, (1R,3s,5S)-3-(6-acetyl-7-amino-3-(6-(2,4-difluorophenyl)pyridin-3-yl)pyrazolo[1,5-a]pyrimidin-5-yl)-8-azabicyclo[3.2.1]octane-8-carboxamide] | 1 to 100 | 1 to 100
7 | CC(=O)c1c([C@@H]2C[C@H]3CC[C@@H](C2)N3C(=O)CO)nc2c(-c3ccc(-c4c(F)cccc4F)nc3)cnn2c1N [Compound 1.1.171, 1-((1R,3s,5S)-3-(6-acetyl-7-amino-3-(6-(2,6-difluorophenyl)pyridin-3-yl)pyrazolo[1,5-a]pyrimidin-5-yl)-8-azabicyclo[3.2.1]octan-8-yl)-2-hydroxyethanone] | 1 to 100 | 1 to 100
8 | CC(=O)c1c([C@@H]2C[C@H]3CC[C@@H](C2)N3C(=O)CO)nc2c(-c3ccc(-c4ccccc4F)nc3)cnn2c1N [Compound 1.1.172, 1-((1R,3s,5S)-3-(6-acetyl-7-amino-3-(6-(2-fluorophenyl)pyridin-3-yl)pyrazolo[1,5-a]pyrimidin-5-yl)-8-azabicyclo[3.2.1]octan-8-yl)-2-hydroxyethanone] | 1 to 100 | 1 to 100
9 | CC(=O)c1c([C@@H]2C[C@H]3CC[C@@H](C2)N3C(=O)c2nnc(C)[nH]2)nc2c(-c3ccc(-c4ccccc4F)nc3)cnn2c1N [Compound 1.1.173, 1-(7-amino-3-(6-(2-fluorophenyl)pyridin-3-yl)-5-((1R,3s,5S)-8-(5-methyl-4H-1,2,4-triazole-3-carbonyl)-8-azabicyclo[3.2.1]octan-3-yl)pyrazolo[1,5-a]pyrimidin-6-yl)ethanone] | 1 to 100 | 1 to 100
10 | CC(=O)c1c([C@@H]2C[C@H]3CC[C@@H](C2)N3C(N)=O)nc2c(-c3ccc(-c4ccccc4F)nc3)cnn2c1N [Compound 1.1.174, (1R,3s,5S)-3-(6-acetyl-7-amino-3-(6-(2-fluorophenyl)pyridin-3-yl)pyrazolo[1,5-a]pyrimidin-5-yl)-8-azabicyclo[3.2.1]octane-8-carboxamide] | 1 to 100 | 1 to 100
11 | CC(=O)c1c([C@@H]2C[C@H]3CC[C@@H](C2)N3C(N)=O)nc2c(-c3ccc(-c4cnn(C)c4)nc3)cnn2c1N [Compound 1.1.175, (1R,3s,5S)-3-(6-acetyl-7-amino-3-(6-(1-methyl-1H-pyrazolo-4-yl)pyridin-3-yl)pyrazolo[1,5-a]pyrimidin-5-yl)-8-azabicyclo[3.2.1]octane-8-carboxamide] | 100 to 1000 | 1 to 100
12 | CC(=O)c1c([C@@H]2C[C@H]3CC[C@@H](C2)N3C(=O)c2cc(N)n[nH]2)nc2c(-c3ccc(-c4cnn(C)c4)nc3)cnn2c1N [Compound 1.1.176, 1-(7-amino-5-((1R,3s,5S)-8-(3-amino-1H-pyrazole-5-carbonyl)-8-azabicyclo[3.2.1]octan-3-yl)-3-(6-(1-methyl-1H-pyrazol-4-yl)pyridin-3-yl)pyrazolo[1,5-a]pyrimidin-6-yl)ethanone] | 100 to 1000 | 100 to 1000
13 | CC(=O)c1c([C@@H]2C[C@H]3CC[C@@H](C2)N3C(=O)c2nnc[nH]2)nc2c(-c3ccc(-n4cccn4)nc3)cnn2c1N [Compound 1.1.177, 1-(3-(6-(1H-pyrazol-1-yl)pyridin-3-yl)-5-((1R,3s,5S)-8-(4H-1,2,4-triazole-3-carbonyl)-8-azabicyclo[3.2.1]octan-3-yl)-7-aminopyrazolo[1,5-a]pyrimidin-6-yl)ethanone] | 1 to 100 | 1 to 100
14 | CC(=O)c1c([C@@H]2C[C@H]3CC[C@@H](C2)N3C(=O)CO)nc2c(-c3ccc(-n4cccn4)nc3)cnn2c1N [Compound 1.1.178, 1-((1R,3s,5S)-3-(3-(6-(1H-pyrazol-1-yl)pyridin-3-yl)-6-acetyl-7-aminopyrazolo[1,5-a]pyrimidin-5-yl)-8-azabicyclo[3.2.1]octan-8-yl)-2-hydroxyethanone] | 100 to 1000 | 1 to 100
15 | CC(=O)c1c([C@@H]2C[C@H]3CC[C@@H](C2)N3C(=O)c2nnc[nH]2)nc2c(-c3cnc(-c4ccccc4)nc3)cnn2c1N [Compound 1.1.179, 1-(5-((1R,3s,5S)-8-(4H-1,2,4-triazole-3-carbonyl)-8-azabicyclo[3.2.1]octan-3-yl)-7-amino-3-(2-phenylpyrimidin-5-yl)pyrazolo[1,5-a]pyrimidin-6-yl)ethanone] | 1 to 100 | 1 to 100
16 | CC(=O)c1c([C@@H]2C[C@H]3CC[C@@H](C2)N3C(=O)c2nnc[nH]2)nc2c(-c3cnc(C(C)(C)O)nc3)cnn2c1N [Compound 1.1.180, 1-(5-((1R,3s,5S)-8-(4H-1,2,4-triazole-3-carbonyl)-8-azabicyclo[3.2.1]octan-3-yl)-7-amino-3-(2-(2-hydroxypropan-2-yl)pyrimidin-5-yl)pyrazolo[1,5-a]pyrimidin-6-yl)ethanone] | 100 to 1000 | 100 to 1000
